How the values were obtained:
Type in all cases: cell-based
[1] = tested on: A172 (human glioblastoma); assay: Test on cell proliferation (MTT test), A172; settings: 72 hours
Method: (§1) a. Eight tumoral cell lines are used in this study: L1210 (mouse lymphocytic leukemia), HCT15 and LOVO (cell lines of human colon adenocarcinoma), A549 (human lung carcinoma), A172, U373 et U87 (human glioblastoma). All these lines are obtained from the American Type Culture Collection (ATCC), Rockville, Md. The L1210 cell cultures in suspension are cultured in Dulbecco's modified Eagle's medium (DMEM) (BioWhitaker, Verviers, Belgium) together with 10% of foetal calf serum inactivated by heating, 2 mM of glutamine, 50 μg/ml of penicillin and 50 μg/ml of streptomycin. The HT29 cells are cultured in mono-layer cultures in a McCoy 5a medium (Gibco, Paisley, United Kingdom) together with 10% of foetal calf serum inactivated by heat plus 2 mM of glutamine and 50 μg/ml of gentamycin. The other cells are cultured in an Earle's modified essential medium (EMEM; Gibco, Paisley, United Kingdom) together with 5% foetal calf serum inactivated by heat, 2 mM of glutamine, 50 U/ml of penicillin and 50 μg/ml of streptomycin. All the cell lines are cultured at 37° C. in a humidified atmosphere containing 95% air and 5% CO2.
(§2) Inhibition of the tumor cell line proliferation is determined using an MTT test. 1500 L1210 cells in a culture medium (according to the needs of the cell medium) are seeded in a well of a micro-well plate (tissue culture level: 96 wells, flat bottom) 24 hours before treatment with the compounds to be tested. For these dose-response studies, the cells are incubated with each of the compounds to be tested or their corresponding solvent (controls) for 48 hours over a final concentration range of 1.10^−10 to 1.10^−4 M. All the compounds are dissolved just before use in dimethylsulphoxide (DMSO) at a concentration of 50 mM. Other dilutions of the medicaments are carried out in the culture medium. The final concentration of DMSO never exceeds 0.2% (v/v). As controls, the solutions of medicaments are replaced with the solvent which is diluted successively in the same way as the compounds to be tested.
(§3) After the incubation period, the labeling reagent MTT (3-[4,5-dimethylthiazol-2-yl]-2,5-diphenyltetrazolium bromide; Thiazol blue, Sigma M 565, Sigma, St Louis, Mo.) is added at a final concentration of 0.3 mg/ml to each well. The cells are incubated for 4 hours at 37° C. in a humidified atmosphere. This stage allows the mitochondrial dehydrogenase of the living cells to convert the yellow tetrazolium salt MTT into crimson formazan crystals. The supernatant part is eliminated and the formazan crystals formed are solubilized with DMSO. The resultant coloured solution is quantified by absorbance at 570 nm by using a multi-cuvette scanning spectrophotometer. The data concerning the proliferation is expressed as a percentage of living cells in the treated wells, divided by the living cells in the controls. Each point represents the average of three independent experiments, each experiment represents six determinations.
(§4) For the other cell lines (HCT15, LOVO, A549, A172, U373, U87), 1000 to 2000 cells are seeded in the well of a micro-well plate 24 hours before medicinal treatment. […]
(§5) The results are expressed as percentages of the calculated proliferation by the optical density (OD) of the cells treated with a medicament divided by the OD of the control cells (cells treated with DMSO). As represented in Table II, the compounds to be tested have inhibited the proliferation of cells in a dose-dependent manner.

[2] = tested on: U373 (human glioblastoma); assay: Test on cell proliferation (MTT test), U373; settings: 72 hours
Method: as §1, §2, §3, §4, §5

[3] = tested on: LOVO (cell lines of human colon adenocarcinoma); assay: Test on cell proliferation (MTT test), LOVO; settings: 72 hours
Method: as §1, §2, §3, §4, §5

U87 (human glioblastoma) = assay: Test on cell proliferation (MTT test), U87; settings: 72 hours
Method: as §1, §2, §3, §4, §5

[4] = tested on: A549 (human lung carcinoma); assay: Test on cell proliferation (MTT test), A549; settings: 72 hours
Method: as §1, §2, §3, §4, §5

[5] = tested on: HCT15 (cell lines of human colon adenocarcinoma); assay: Test on cell proliferation (MTT test), HCT15; settings: 72 hours
Method: as §1, §2, §3, §4, §5

[6] = tested on: L1210 (mouse lymphocytic leukemia); assay: Test on cell proliferation (MTT test), L1210; settings: 48 hours
Method: as §1, §2, §3, §5

CCc1c2c(nc3ccccc13)-c1cc3c(c(=O)n1C2)COC(=O)CC3(O)CC (stereo not shown) [Example 9, 5,12-diethyl-5-hydroxy-1,4,5,13-tetrahydro-3H,15H-oxepino[3′,4′:6,7]indolizino[1,2-b]quinoline-3,15-dione]
PERCENTAGE OF CELL PROLIFERATION ([1]; 0.1 nM): 97.00% | PERCENTAGE OF CELL PROLIFERATION ([1]; 1 nM): 89.00% | PERCENTAGE OF CELL PROLIFERATION ([1]; 10 nM): 44.00% | PERCENTAGE OF CELL PROLIFERATION ([1]; 100 nM): 36.00% | PERCENTAGE OF CELL PROLIFERATION ([1]; 1 000 nM): 19.00% | PERCENTAGE OF CELL PROLIFERATION ([1]; 10 000 nM): 3.00% | PERCENTAGE OF CELL PROLIFERATION ([1]; 100 000 nM): 1.00% | PERCENTAGE OF CELL PROLIFERATION ([2]; 0.1 nM): 89.00% | PERCENTAGE OF CELL PROLIFERATION ([2]; 1 nM): 69.00% | PERCENTAGE OF CELL PROLIFERATION ([2]; 10 nM): 24.00% | PERCENTAGE OF CELL PROLIFERATION ([2]; 100 nM): 18.00% | PERCENTAGE OF CELL PROLIFERATION ([2]; 1 000 nM): 8.00% | PERCENTAGE OF CELL PROLIFERATION ([2]; 10 000 nM): 3.00% | PERCENTAGE OF CELL PROLIFERATION ([2]; 100 000 nM): 1.00% | PERCENTAGE OF CELL PROLIFERATION ([3]; 0.1 nM): 74.00% | PERCENTAGE OF CELL PROLIFERATION ([3]; 1 nM): 85.00% | PERCENTAGE OF CELL PROLIFERATION ([3]; 10 nM): 44.00% | PERCENTAGE OF CELL PROLIFERATION ([3]; 100 nM): 31.00% | PERCENTAGE OF CELL PROLIFERATION ([3]; 1 000 nM): 21.00% | PERCENTAGE OF CELL PROLIFERATION ([3]; 10 000 nM): 4.00% | PERCENTAGE OF CELL PROLIFERATION ([3]; 100 000 nM): 2.00% | PERCENTAGE OF CELL PROLIFERATION (U87 (human glioblastoma); 0.1 nM): 105.00% | PERCENTAGE OF CELL PROLIFERATION (U87 (human glioblastoma); 1 nM): 72.00% | PERCENTAGE OF CELL PROLIFERATION (U87 (human glioblastoma); 10 nM): 14.00% | PERCENTAGE OF CELL PROLIFERATION (U87 (human glioblastoma); 100 nM): 7.00% | PERCENTAGE OF CELL PROLIFERATION (U87 (human glioblastoma); 1 000 nM): 4.00% | PERCENTAGE OF CELL PROLIFERATION (U87 (human glioblastoma); 10 000 nM): 2.00% | PERCENTAGE OF CELL PROLIFERATION (U87 (human glioblastoma); 100 000 nM): 6.00% | PERCENTAGE OF CELL PROLIFERATION ([4]; 0.1 nM): 91.00% | PERCENTAGE OF CELL PROLIFERATION ([4]; 1 nM): 88.00% | PERCENTAGE OF CELL PROLIFERATION ([4]; 10 nM): 50.00% | PERCENTAGE OF CELL PROLIFERATION ([4]; 100 nM): 31.00% | PERCENTAGE OF CELL PROLIFERATION ([4]; 1 000 nM): 23.00% | PERCENTAGE OF CELL PROLIFERATION ([4]; 10 000 nM): 5.00% | PERCENTAGE OF CELL PROLIFERATION ([4]; 100 000 nM): 3.00% | PERCENTAGE OF CELL PROLIFERATION ([5]; 0.1 nM): 94.00% | PERCENTAGE OF CELL PROLIFERATION ([5]; 1 nM): 89.00% | PERCENTAGE OF CELL PROLIFERATION ([5]; 10 nM): 59.00% | PERCENTAGE OF CELL PROLIFERATION ([5]; 100 nM): 35.00% | PERCENTAGE OF CELL PROLIFERATION ([5]; 1 000 nM): 15.00% | PERCENTAGE OF CELL PROLIFERATION ([5]; 10 000 nM): 8.00% | PERCENTAGE OF CELL PROLIFERATION ([5]; 100 000 nM): 3.00% | PERCENTAGE OF CELL PROLIFERATION ([6]; 0.1 nM): 74.04% | PERCENTAGE OF CELL PROLIFERATION ([6]; 1 nM): 62.05% | PERCENTAGE OF CELL PROLIFERATION ([6]; 10 nM): 44.72% | PERCENTAGE OF CELL PROLIFERATION ([6]; 100 nM): 34.01% | PERCENTAGE OF CELL PROLIFERATION ([6]; 1 000 nM): 20.20% | PERCENTAGE OF CELL PROLIFERATION ([6]; 10 000 nM): 4.34% | PERCENTAGE OF CELL PROLIFERATION ([6]; 100 000 nM): 1.58%

Source: patent publication US6815546B2, “Analogues of camptothecin, their use as medicaments and the pharmaceutical compositions containing them” (Societe de Recherches et d'Applications Scientifiques …, priority 1995, dated 2004)
